Reference: patent US12077503B2, “Substituted cyclic amides and their use as herbicides” (FMC CORPORATION, priority 2015, dated 2024)

Assays:
Format in all cases: in vivo
[1] = system: barnyardgrass (Echinochloa crus-galli); experiment: Test G Pre-Emergence Protocol; conditions: Echinochloa crus-galli, pre-emergence, 312 h, evaluated after 13 days; for pest or weed control at 15.625 g/ha: 15.625 g ai/ha, read-out: Barnyard grass damage rating (100=total damage to plant; 0=no damage to plant); for pest or weed control at 62.5 g/ha: 62.5 g ai/ha, 100=total damage to plant, 0=no damage to plant, read-out: plant damage rating, Barnyardgrass; for pest or weed control at 250 g/ha: 250 g ai/ha, read-out: Barnyardgrass damage rating (100=total damage to plant; 0=no damage to plant)
Method in brief: (§1)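 Visual injury (0–100) at day 13 after a single pre-emergence spray. Rates: 15.625, 62.5, 250 g/ha in acetone–water 50:50 with 0.5% Tween 20. Growth conditions: 24/16° C, 14 h light, 65% humidity.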

corn (Zea mays) [2] = experiment: Test G Pre-Emergence Protocol; conditions: Zea mays, pre-emergence, 312 h, evaluated after 13 days; for plant injury at 15.625 g/ha: 15.625 g ai/ha; for plant injury at 15.625 g/ha / plant injury at 250 g/ha: read-out: Corn damage rating (100=total damage to plant; 0=no damage to plant); for plant injury at 62.5 g/ha: 62.5 g ai/ha, 100=total damage to plant, 0=no damage to plant, read-out: plant damage rating, Corn; for plant injury at 250 g/ha: 250 g ai/ha
Method in brief: as §1

[3] = system: giant foxtail (Setaria faberi); experiment: Test G Pre-Emergence Protocol; conditions: Setaria faberi, pre-emergence, 312 h, evaluated after 13 days; for pest or weed control at 15.625 g/ha: 15.625 g ai/ha; for pest or weed control at 15.625 g/ha / pest or weed control at 250 g/ha: read-out: Foxtail, Giant damage rating (100=total damage to plant; 0=no damage to plant); for pest or weed control at 62.5 g/ha: 62.5 g ai/ha, 100=total damage to plant, 0=no damage to plant, read-out: plant damage rating, Foxtail, Giant; for pest or weed control at 250 g/ha: 250 g ai/ha
Method in brief: as §1

[4] = system: ivy-leaved morning glory (Ipomoea hederacea); experiment: Test G Pre-Emergence Protocol; conditions: Ipomoea, pre-emergence, 312 h, evaluated after 13 days; for pest or weed control at 15.625 g/ha: 15.625 g ai/ha, read-out: Morning-glory, Ivy-leaved damage rating (100=total damage to plant; 0=no damage to plant); for pest or weed control at 62.5 g/ha: 62.5 g ai/ha, 100=total damage to plant, 0=no damage to plant, read-out: plant damage rating, Morningglory, Ivy-leaved; for pest or weed control at 250 g/ha: 250 g ai/ha, read-out: Morningglory, Ivy-leaved damage rating (100=total damage to plant; 0=no damage to plant)
Method in brief: as §1

[5] = system: redroot pigweed (Amaranthus retroflexus); experiment: Test G Pre-Emergence Protocol; conditions: Amaranthus retroflexus, pre-emergence, 312 h, evaluated after 13 days; for pest or weed control at 15.625 g/ha: 15.625 g ai/ha; for pest or weed control at 15.625 g/ha / pest or weed control at 250 g/ha: read-out: Pigweed, Redroot damage rating (100=total damage to plant; 0=no damage to plant); for pest or weed control at 62.5 g/ha: 62.5 g ai/ha, 100=total damage to plant, 0=no damage to plant, read-out: plant damage rating, Pigweed, Redroot; for pest or weed control at 250 g/ha: 250 g ai/ha
Method in brief: as §1

[6] = system: velvetleaf (Abutilon theophrasti); experiment: Test G Pre-Emergence Protocol; conditions: Abutilon theophrasti, pre-emergence, 312 h, evaluated after 13 days; for pest or weed control at 15.625 g/ha: 15.625 g ai/ha; for pest or weed control at 15.625 g/ha / pest or weed control at 250 g/ha: read-out: Velvetleaf damage rating (100=total damage to plant; 0=no damage to plant); for pest or weed control at 62.5 g/ha: 62.5 g ai/ha, 100=total damage to plant, 0=no damage to plant, read-out: plant damage rating, Velvetleaf; for pest or weed control at 250 g/ha: 250 g ai/ha
Method in brief: as §1

[7] = system: barnyardgrass (Echinochloa crus-galli); experiment: Test G Post-Emergence Protocol; conditions: Echinochloa crus-galli, post-emergence, 312 h; for pest or weed control at 15.625 g/ha: 15.625 g ai/ha, evaluated after 13 days (100=total damage to plant; 0=no damage to plant), read-out: Barnyardgrass damage rating; for pest or weed control at 62.5 g/ha: 62.5 g ai/ha, read-out: Barnyardgrass damage rating (100=total damage to plant; 0=no damage to plant); for pest or weed control at 62.5 g/ha / pest or weed control at 250 g/ha: evaluated after 13 days; for pest or weed control at 250 g/ha: 250 g ai/ha, read-out: damage to plant, Barnyardgrass (100=total damage to plant; 0=no damage to plant)
Method in brief: (§2)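 Values are percent visual injury at 13 days after treatment (0 none, 100 total). Treatment was a post-emergence spray at 15.625, 62.5 or 250 g/ha on 8-day-old pot plants kept at 24/16 °C.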

corn (Zea mays) [8] = experiment: Test G Post-Emergence Protocol; conditions: Zea mays, post-emergence, 312 h; for plant injury at 15.625 g/ha: 15.625 g ai/ha, evaluated after 13 days (100=total damage to plant; 0=no damage to plant), read-out: Corn damage rating; for plant injury at 62.5 g/ha: 62.5 g ai/ha, read-out: Corn damage rating (100=total damage to plant; 0=no damage to plant); for plant injury at 62.5 g/ha / plant injury at 250 g/ha: evaluated after 13 days; for plant injury at 250 g/ha: 250 g ai/ha, read-out: damage to plant, Corn (100=total damage to plant; 0=no damage to plant)
Method in brief: as §2

[9] = system: giant foxtail (Setaria faberi); experiment: Test G Post-Emergence Protocol; conditions: Setaria faberi, post-emergence, 312 h; for pest or weed control at 15.625 g/ha: 15.625 g ai/ha, evaluated after 13 days (100=total damage to plant; 0=no damage to plant), read-out: Foxtail, Giant damage rating; for pest or weed control at 62.5 g/ha: 62.5 g ai/ha, read-out: Foxtail, Giant damage rating (100=total damage to plant; 0=no damage to plant); for pest or weed control at 62.5 g/ha / pest or weed control at 250 g/ha: evaluated after 13 days; for pest or weed control at 250 g/ha: 250 g ai/ha, read-out: damage to plant, Foxtail, Giant (100=total damage to plant; 0=no damage to plant)
Method in brief: as §2

[10] = system: ivy-leaved morning glory (Ipomoea hederacea); experiment: Test G Post-Emergence Protocol; conditions: Ipomoea, post-emergence, 312 h; for pest or weed control at 15.625 g/ha: 15.625 g ai/ha, evaluated after 13 days (100=total damage to plant; 0=no damage to plant), read-out: Morningglory, Ivy-leaved damage rating; for pest or weed control at 62.5 g/ha: 62.5 g ai/ha, read-out: Morningglory, Ivy-leaved damage rating (100=total damage to plant; 0=no damage to plant); for pest or weed control at 62.5 g/ha / pest or weed control at 250 g/ha: evaluated after 13 days; for pest or weed control at 250 g/ha: 250 g ai/ha, read-out: damage to plant, Morningglory, Ivy-leaved (100=total damage to plant; 0=no damage to plant)
Method in brief: as §2

[11] = system: redroot pigweed (Amaranthus retroflexus); experiment: Test G Post-Emergence Protocol; conditions: Amaranthus retroflexus, post-emergence, 312 h; for pest or weed control at 15.625 g/ha: 15.625 g ai/ha, evaluated after 13 days (100=total damage to plant; 0=no damage to plant), read-out: Pigweed, Redroot damage rating; for pest or weed control at 62.5 g/ha: 62.5 g ai/ha, read-out: Pigweed, Redroot damage rating (100=total damage to plant; 0=no damage to plant); for pest or weed control at 62.5 g/ha / pest or weed control at 250 g/ha: evaluated after 13 days; for pest or weed control at 250 g/ha: 250 g ai/ha, read-out: damage to plant, Pigweed, Redroot (100=total damage to plant; 0=no damage to plant)
Method in brief: as §2

[12] = system: velvetleaf (Abutilon theophrasti); experiment: Test G Post-Emergence Protocol; conditions: Abutilon theophrasti, post-emergence, 312 h; for pest or weed control at 15.625 g/ha: 15.625 g ai/ha, evaluated after 13 days (100=total damage to plant; 0=no damage to plant), read-out: Velvetleaf damage rating; for pest or weed control at 62.5 g/ha: 62.5 g ai/ha, read-out: Velvetleaf damage rating (100=total damage to plant; 0=no damage to plant); for pest or weed control at 62.5 g/ha / pest or weed control at 250 g/ha: evaluated after 13 days; for pest or weed control at 250 g/ha: 250 g ai/ha, read-out: damage to plant, Velvetleaf (100=total damage to plant; 0=no damage to plant)
Method in brief: as §2

Structure (SMILES) | pest or weed control at 15.625 g/ha [1] [%] | pest or weed control at 62.5 g/ha [1] [%] | pest or weed control at 250 g/ha [1] [%] | plant injury at 15.625 g/ha (corn (Zea mays) [2]) [%] | plant injury at 62.5 g/ha (corn (Zea mays) [2]) [%] | plant injury at 250 g/ha (corn (Zea mays) [2]) [%] | pest or weed control at 15.625 g/ha [3] [%] | pest or weed control at 62.5 g/ha [3] [%] | pest or weed control at 250 g/ha [3] [%] | pest or weed control at 15.625 g/ha [4] [%] | pest or weed control at 62.5 g/ha [4] [%] | pest or weed control at 250 g/ha [4] [%] | pest or weed control at 15.625 g/ha [5] [%] | pest or weed control at 62.5 g/ha [5] [%] | pest or weed control at 250 g/ha [5] [%] | pest or weed control at 15.625 g/ha [6] [%] | pest or weed control at 62.5 g/ha [6] [%] | pest or weed control at 250 g/ha [6] [%] | pest or weed control at 15.625 g/ha [7] [%] | pest or weed control at 62.5 g/ha [7] [%] | further results
Cc1nccc(NC(=O)[C@@H]2C(=O)N(C)C[C@H]2c2ccc(C(F)(F)F)cc2)c1C (racemic) [Compound 1630] | 0 | 0 | 0 | 0 | 0 | 0 | 0 | 0 | 0 | 0 | 0 | 0 | 0 | 0 | 0 | 0 | 0 | 0 | 0 | 0 | pest or weed control at 250 g/ha [7]: 0%; plant injury at 15.625 g/ha (corn (Zea mays) [8]): 0%; plant injury at 62.5 g/ha (corn (Zea mays) [8]): 0%; plant injury at 250 g/ha (corn (Zea mays) [8]): 0%; pest or weed control at 15.625 g/ha [9]: 0%; pest or weed control at 62.5 g/ha [9]: 0%; pest or weed control at 250 g/ha [9]: 0%; pest or weed control at 15.625 g/ha [10]: 0%; pest or weed control at 62.5 g/ha [10]: 0%; pest or weed control at 250 g/ha [10]: 0%; pest or weed control at 15.625 g/ha [11]: 0%; pest or weed control at 62.5 g/ha [11]: 0%; pest or weed control at 250 g/ha [11]: 0%; pest or weed control at 15.625 g/ha [12]: 0%; pest or weed control at 62.5 g/ha [12]: 0%; pest or weed control at 250 g/ha [12]: 0%
Cc1n[nH]cc1NC(=O)[C@@H]1C(=O)N(C)C[C@H]1c1ccc(C(F)(F)F)cc1 (racemic) [Compound 1634] | 0 | 0 | 0 | 0 | 0 | 0 | 0 | 0 | 0 | 0 | 0 | 0 | 0 | 0 | 0 | 0 | 0 | 0 | 0 | 0 | pest or weed control at 250 g/ha [7]: 0%; plant injury at 15.625 g/ha (corn (Zea mays) [8]): 0%; plant injury at 62.5 g/ha (corn (Zea mays) [8]): 0%; plant injury at 250 g/ha (corn (Zea mays) [8]): 0%; pest or weed control at 15.625 g/ha [9]: 0%; pest or weed control at 62.5 g/ha [9]: 0%; pest or weed control at 250 g/ha [9]: 20%; pest or weed control at 15.625 g/ha [10]: 0%; pest or weed control at 62.5 g/ha [10]: 0%; pest or weed control at 250 g/ha [10]: 0%; pest or weed control at 15.625 g/ha [11]: 0%; pest or weed control at 62.5 g/ha [11]: 0%; pest or weed control at 250 g/ha [11]: 0%; pest or weed control at 15.625 g/ha [12]: 0%; pest or weed control at 62.5 g/ha [12]: 0%; pest or weed control at 250 g/ha [12]: 0%
CN1C[C@@H](c2ccc(C(F)(F)F)cc2)[C@H](C(=O)Nc2cccc(F)c2C#N)C1=O (racemic) [Compound 1637] | 20 | 30 | 80 | 0 | 0 | 30 | 60 | 90 | 90 | 0 | 0 | 0 | 20 | 50 | 60 | 0 | 0 | 0 | 20 | 70 | pest or weed control at 250 g/ha [7]: 70%; plant injury at 15.625 g/ha (corn (Zea mays) [8]): 0%; plant injury at 62.5 g/ha (corn (Zea mays) [8]): 0%; plant injury at 250 g/ha (corn (Zea mays) [8]): 10%; pest or weed control at 15.625 g/ha [9]: 60%; pest or weed control at 62.5 g/ha [9]: 80%; pest or weed control at 250 g/ha [9]: 80%; pest or weed control at 15.625 g/ha [10]: 0%; pest or weed control at 62.5 g/ha [10]: 20%; pest or weed control at 250 g/ha [10]: 30%; pest or weed control at 15.625 g/ha [11]: 40%; pest or weed control at 62.5 g/ha [11]: 70%; pest or weed control at 250 g/ha [11]: 70%; pest or weed control at 15.625 g/ha [12]: 0%; pest or weed control at 62.5 g/ha [12]: 10%; pest or weed control at 250 g/ha [12]: 30%
